From the SangsterLogP compilation

How the values were obtained:
[1] = method code G-GLC, from DOI: 10.1021/je00030a025
[2] = method code G-HPLC, from DOI: 10.1021/je00030a025

logP [1] | logP [2] | Structure (SMILES)
 | 4.9 | CCCCCc1ccccc1
 | 1.11 | CC(=O)OCCBr
2.57 |  | CCCCCCCO
 | 2.53 | C=CCCBr
3.99 |  | C=CCCCCC
 | 3.18 | CCCCCCCC(C)=O
 | 2.76 | CCCCCCC(C)=O
4.15 |  | CCCCCCCCl
5.18 |  | CCCCCCCC
0.99 |  | CCC(=O)CC
5.15 |  | C=CCCCCCCC
4.7 |  | CCCCCCCI
2.73 |  | C#CCCCC

Structure (SMILES) | logP [1] | logP [2]
CCCCCCBr | 3.8 | 
Fc1ccccc1CCl | 2.67 | 
O=Cc1ccco1 |  | 0.52
CCCCCCCCBr | 4.89 | 
Fc1cccc(CCl)c1 |  | 2.77
ClCCCBr | 2.18 | 
